Reference: publication PMC3914206

Assays:
Format in all cases: binding
panel of 442 kinases [1] = target: T1, panel of 442 kinases (Homo sapiens, UniProt Q13043); settings: Compound Concentration 10 µM
T1 construct: purchased KINOMEscan
T1 sequence (Q13043 1-487): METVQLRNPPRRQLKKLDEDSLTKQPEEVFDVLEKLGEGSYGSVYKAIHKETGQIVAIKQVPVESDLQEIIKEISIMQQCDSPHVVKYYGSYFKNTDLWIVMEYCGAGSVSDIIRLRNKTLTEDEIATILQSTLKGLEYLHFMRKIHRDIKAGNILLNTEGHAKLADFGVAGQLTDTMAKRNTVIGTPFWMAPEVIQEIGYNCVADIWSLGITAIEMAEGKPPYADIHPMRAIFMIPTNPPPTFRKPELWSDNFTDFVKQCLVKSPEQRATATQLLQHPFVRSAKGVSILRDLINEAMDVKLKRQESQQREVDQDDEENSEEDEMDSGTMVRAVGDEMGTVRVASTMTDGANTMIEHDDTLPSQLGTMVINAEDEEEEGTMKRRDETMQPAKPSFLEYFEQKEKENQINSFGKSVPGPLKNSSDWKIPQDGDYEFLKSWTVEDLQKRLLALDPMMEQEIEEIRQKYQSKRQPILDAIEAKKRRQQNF
Text: (§1) We assessed the selectivity of members of this scaffold using the KINOMEscan methodology across a near comprehensive panel of 442 kinases [[18,27]].

panel of 442 kinases [2] = target: T2, panel of 442 kinases (Homo sapiens, UniProt Q08345); settings: Compound Concentration 10 µM
T2 construct: purchased KINOMEscan
Text: as §1

panel of 442 kinases [3] = target: T3, panel of 442 kinases (Homo sapiens, UniProt Q9BXA7); settings: kinase TSSK1B; compound concentration 10 µM
T3 construct: purchased KINOMEscan
T3 sequence (Q9BXA7 1-367): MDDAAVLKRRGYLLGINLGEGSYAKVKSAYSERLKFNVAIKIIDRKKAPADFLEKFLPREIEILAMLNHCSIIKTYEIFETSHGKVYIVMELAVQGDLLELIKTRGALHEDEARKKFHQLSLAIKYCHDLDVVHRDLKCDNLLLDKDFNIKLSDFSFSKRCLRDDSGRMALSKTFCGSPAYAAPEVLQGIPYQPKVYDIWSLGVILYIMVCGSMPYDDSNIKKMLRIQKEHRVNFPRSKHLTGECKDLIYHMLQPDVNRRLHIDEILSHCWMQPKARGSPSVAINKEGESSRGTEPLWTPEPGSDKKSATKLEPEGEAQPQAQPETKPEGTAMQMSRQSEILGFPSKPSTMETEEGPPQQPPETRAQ
Text: as §1

T2 sequence (Q08345 19-913): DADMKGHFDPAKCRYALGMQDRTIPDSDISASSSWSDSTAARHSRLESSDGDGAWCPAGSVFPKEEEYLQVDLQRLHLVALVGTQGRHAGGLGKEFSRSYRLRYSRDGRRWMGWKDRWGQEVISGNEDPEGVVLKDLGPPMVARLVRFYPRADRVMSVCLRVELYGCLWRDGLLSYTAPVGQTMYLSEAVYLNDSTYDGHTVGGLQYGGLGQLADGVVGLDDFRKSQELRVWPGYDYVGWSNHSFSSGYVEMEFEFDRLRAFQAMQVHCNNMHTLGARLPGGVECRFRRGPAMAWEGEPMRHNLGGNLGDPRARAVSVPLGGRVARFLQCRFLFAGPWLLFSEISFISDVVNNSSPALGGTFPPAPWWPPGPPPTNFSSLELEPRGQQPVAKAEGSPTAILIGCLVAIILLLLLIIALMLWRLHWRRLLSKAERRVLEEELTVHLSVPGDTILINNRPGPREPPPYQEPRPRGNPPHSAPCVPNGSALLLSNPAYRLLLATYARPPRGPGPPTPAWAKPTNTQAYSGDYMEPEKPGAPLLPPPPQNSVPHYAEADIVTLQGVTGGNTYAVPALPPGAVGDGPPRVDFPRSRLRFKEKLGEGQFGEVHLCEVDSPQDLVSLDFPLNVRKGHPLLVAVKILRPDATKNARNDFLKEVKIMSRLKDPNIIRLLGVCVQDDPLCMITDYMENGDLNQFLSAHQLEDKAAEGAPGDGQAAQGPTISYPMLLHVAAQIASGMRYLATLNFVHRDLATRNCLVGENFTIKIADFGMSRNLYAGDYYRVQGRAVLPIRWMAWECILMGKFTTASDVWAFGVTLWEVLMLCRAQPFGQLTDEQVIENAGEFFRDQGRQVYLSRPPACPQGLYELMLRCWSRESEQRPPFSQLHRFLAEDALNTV

CCOc1cc(C(=O)N2CCC(N3CCN(C)CC3)CC2)ccc1Nc1ncc2c(n1)N(C1CCCC1)c1ccccc1C(=O)N2C [Compound 26]
KINOMEscan: MST1 (panel of 442 kinases [1]): 100 | KINOMEscan: DDR1 (panel of 442 kinases [2]): 100 | % Ctrl, TSSK1B (panel of 442 kinases [3]): 100 % Ctrl

COc1cc(C(=O)N2CCC(N3CCN(C)CC3)CC2)ccc1Nc1ncc2c(n1)N1CCc3cccc(c31)C(=O)N2C [Compound 24]
KINOMEscan: MST1 (panel of 442 kinases [1]): 95 | KINOMEscan: DDR1 (panel of 442 kinases [2]): 67 | % Ctrl, TSSK1B (panel of 442 kinases [3]): 61 % Ctrl

COc1cc(C(=O)N2CCC(N3CCN(C)CC3)CC2)ccc1Nc1ncc2c(n1)N(C)c1ccccc1C(=O)N2C [15 (LRRK2-IN-1)]
KINOMEscan: MST1 (panel of 442 kinases [1]): 100 | KINOMEscan: DDR1 (panel of 442 kinases [2]): 100 | % Ctrl, TSSK1B (panel of 442 kinases [3]): 60 % Ctrl

COc1cc(C(=O)N2CCC(N3CCN(C)CC3)CC2)ccc1Nc1ncc2c(n1)N(C1CCCC1)c1ccccc1C(=O)N2C [Compound 25, 11-cyclopentyl-2-((2-methoxy-4-(4-(4-methylpiperazin-1-yl)piperidine-1-carbonyl)phenyl)amino)-5-methyl-5H-benzo[e]pyrimido[5,4-b][1,4]diazepin-6(11H)-one]
KINOMEscan: MST1 (panel of 442 kinases [1]): 100 | KINOMEscan: DDR1 (panel of 442 kinases [2]): 98 | % Ctrl, TSSK1B (panel of 442 kinases [3]): 90 % Ctrl
